# Laboratory results from publication PMC9239059, “Structure-Guided Synthesis of FK506 and FK520 Analogs with Increased Selectivity Exhibit In Vivo Therapeutic Efficacy against Cryptococcus” (mBio, 2022).
# Key:
# [1] = molecular target: T1, FKBP12 (Aspergillus fumigatus, UniProt Q4WLV6); test: BLI, compound-mediated ternary complex formation, […] compound; format: binding
# T1 construct: gene fpr1A; biotinylated (Avi-tagged) FKBP12; with CnA-CnB-calmodulin
# [2] = tested on: T2, Cryptococcus neoformans (H99); test: microbe, parasite or virus in culture; parameters: CLSI M27-A3 broth microdilution in RPMI 1640 at 37 C, growth inhibition of C. neoformans (MIC); conditions: Cryptococcus neoformans, read-out: MIC (μg/mL) against: / Cryptococcus neoformans (H99)^a
# T2 construct: H99
# Protocol: (§1) In vitro antifungal activities of FK506, FK520, and analogs were assessed in RPMI 1640 (Sigma-Aldrich) for all strains tested. MICs/minimum effective concentrations (MECs) for each drug were measured using modified Clinical and Laboratory Standards Institute (CLSI) M38-A2 and M27-A3 standard in vitro antifungal susceptibility protocols. Broth microdilution assays for MIC/MEC assessment were performed as described previously ([33]). All antifungal assays with C. neoformans were performed at 37°C. Antifungal susceptibility testing for C. albicans was performed in the presence of a uniform 1 μg/mL concentration of fluconazole to sensitize the organism to calcineurin inhibition. MICs/minimum effective concentrations (MECs) were determined for each of the novel analogs against the three major human fungal pathogens, A. fumigatus, C. neoformans, and C. albicans. […] Thus, analogs of FK506 and FK520 can tolerate up to 100-fold reduction in antifungal activity and still be considered for in vivo testing. For C. neoformans, MICs were the most uniform and ranged from 0.2 to 2 μg/mL, which is between 4- and 40-fold reduced for antifungal activity. C. albicans MICs ranged from 0.2 to 6.25 μg/mL, which is between 10- and 312.5-fold reduced for activity. Despite being one of the most difficult to treat fungal infections, all six analogs were active against A. fumigatus with MECs ranging from 1 to 2 μg/mL or a 62.5- to 125-fold reduction in activity.
# [3] = tested on: Scedosporium prolificans; test: microbe, parasite or virus in culture; parameters: species or system Aspergillus fumigatus and other molds; modified CLSI M38-A2 broth microdilution in RPMI 1640, mold growth inhibition (MIC/MEC); conditions: Lomentospora prolificans; MIC/MEC
# Protocol: as §1, with “in activity. Two FK520 analogs, JH-FK-05 and JH-FK-07, maintained high levels of broad-spectrum antifungal activity across the three species, and JH-FK-07 had the lowest MICs for both C. neoformans and C. albicans. To assess the antifungal activity against other human fungal pathogens, we selected JH-FK-05 to test against a panel of pathogenic molds and drug-resistant A. fumigatus strains (Table S3). JH-FK-05 registered MECs as low as 1 μg/mL for some of these highly recalcitrant species, such as Mucor circinelloides, Rhizopus oryzae, and pan azole-resistant A. fumigatus (strain F14946).” for “in activity.”
# [4] = tested on: T3, Aspergillus fumigatus F16314; test: microbe, parasite or virus in culture; parameters: species or system Aspergillus fumigatus and other molds; modified CLSI M38-A2 broth microdilution in RPMI 1640, mold growth inhibition (MIC/MEC); conditions: F16314, MIC/MEC, azole-resistant strain
# T3 construct: F16314
# Protocol: as §1, with “in activity. Two FK520 analogs, JH-FK-05 and JH-FK-07, maintained high levels of broad-spectrum antifungal activity across the three species, and JH-FK-07 had the lowest MICs for both C. neoformans and C. albicans. To assess the antifungal activity against other human fungal pathogens, we selected JH-FK-05 to test against a panel of pathogenic molds and drug-resistant A. fumigatus strains (Table S3). JH-FK-05 registered MECs as low as 1 μg/mL for some of these highly recalcitrant species, such as Mucor circinelloides, Rhizopus oryzae, and pan azole-resistant A. fumigatus (strain F14946).” for “in activity.”
# [5] = tested on: T4, Aspergillus fumigatus F12776; test: microbe, parasite or virus in culture; parameters: species or system Aspergillus fumigatus and other molds; modified CLSI M38-A2 broth microdilution in RPMI 1640, mold growth inhibition (MIC/MEC); conditions: F12776, MIC/MEC, azole-resistant strain
# T4 construct: F12776
# Protocol: as §1, with “in activity. Two FK520 analogs, JH-FK-05 and JH-FK-07, maintained high levels of broad-spectrum antifungal activity across the three species, and JH-FK-07 had the lowest MICs for both C. neoformans and C. albicans. To assess the antifungal activity against other human fungal pathogens, we selected JH-FK-05 to test against a panel of pathogenic molds and drug-resistant A. fumigatus strains (Table S3). JH-FK-05 registered MECs as low as 1 μg/mL for some of these highly recalcitrant species, such as Mucor circinelloides, Rhizopus oryzae, and pan azole-resistant A. fumigatus (strain F14946).” for “in activity.”
# [6] = tested on: T5, Aspergillus fumigatus F16216; test: microbe, parasite or virus in culture; parameters: species or system Aspergillus fumigatus and other molds; modified CLSI M38-A2 broth microdilution in RPMI 1640, mold growth inhibition (MIC/MEC); conditions: F16216, MIC/MEC, azole-resistant strain
# T5 construct: F16216
# Protocol: as §1, with “in activity. Two FK520 analogs, JH-FK-05 and JH-FK-07, maintained high levels of broad-spectrum antifungal activity across the three species, and JH-FK-07 had the lowest MICs for both C. neoformans and C. albicans. To assess the antifungal activity against other human fungal pathogens, we selected JH-FK-05 to test against a panel of pathogenic molds and drug-resistant A. fumigatus strains (Table S3). JH-FK-05 registered MECs as low as 1 μg/mL for some of these highly recalcitrant species, such as Mucor circinelloides, Rhizopus oryzae, and pan azole-resistant A. fumigatus (strain F14946).” for “in activity.”
# [7] = tested on: Paecilomyces variotti; test: microbe, parasite or virus in culture; parameters: species or system Aspergillus fumigatus and other molds; modified CLSI M38-A2 broth microdilution in RPMI 1640, mold growth inhibition (MIC/MEC); conditions: Paecilomyces; MIC/MEC
# Protocol: as §1, with “in activity. Two FK520 analogs, JH-FK-05 and JH-FK-07, maintained high levels of broad-spectrum antifungal activity across the three species, and JH-FK-07 had the lowest MICs for both C. neoformans and C. albicans. To assess the antifungal activity against other human fungal pathogens, we selected JH-FK-05 to test against a panel of pathogenic molds and drug-resistant A. fumigatus strains (Table S3). JH-FK-05 registered MECs as low as 1 μg/mL for some of these highly recalcitrant species, such as Mucor circinelloides, Rhizopus oryzae, and pan azole-resistant A. fumigatus (strain F14946).” for “in activity.”
# [8] = tested on: Rhizomucor pusilus; test: microbe, parasite or virus in culture; parameters: species or system Aspergillus fumigatus and other molds; modified CLSI M38-A2 broth microdilution in RPMI 1640, mold growth inhibition (MIC/MEC); conditions: Rhizomucor; MIC/MEC
# Protocol: as §1, with “in activity. Two FK520 analogs, JH-FK-05 and JH-FK-07, maintained high levels of broad-spectrum antifungal activity across the three species, and JH-FK-07 had the lowest MICs for both C. neoformans and C. albicans. To assess the antifungal activity against other human fungal pathogens, we selected JH-FK-05 to test against a panel of pathogenic molds and drug-resistant A. fumigatus strains (Table S3). JH-FK-05 registered MECs as low as 1 μg/mL for some of these highly recalcitrant species, such as Mucor circinelloides, Rhizopus oryzae, and pan azole-resistant A. fumigatus (strain F14946).” for “in activity.”
# [9] = tested on: Mucor circinelloides; test: microbe, parasite or virus in culture; parameters: species or system Aspergillus fumigatus and other molds; modified CLSI M38-A2 broth microdilution in RPMI 1640, mold growth inhibition (MIC/MEC); conditions: Mucor circinelloides; MIC/MEC
# Protocol: as §1, with “in activity. Two FK520 analogs, JH-FK-05 and JH-FK-07, maintained high levels of broad-spectrum antifungal activity across the three species, and JH-FK-07 had the lowest MICs for both C. neoformans and C. albicans. To assess the antifungal activity against other human fungal pathogens, we selected JH-FK-05 to test against a panel of pathogenic molds and drug-resistant A. fumigatus strains (Table S3). JH-FK-05 registered MECs as low as 1 μg/mL for some of these highly recalcitrant species, such as Mucor circinelloides, Rhizopus oryzae, and pan azole-resistant A. fumigatus (strain F14946).” for “in activity.”
# T1 sequence (Q4WLV6 whole entry): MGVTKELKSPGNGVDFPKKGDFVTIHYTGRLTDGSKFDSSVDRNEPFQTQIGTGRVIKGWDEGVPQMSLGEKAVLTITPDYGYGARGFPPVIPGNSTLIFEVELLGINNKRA
# T1 sequence (Q4WUR1 whole entry partner): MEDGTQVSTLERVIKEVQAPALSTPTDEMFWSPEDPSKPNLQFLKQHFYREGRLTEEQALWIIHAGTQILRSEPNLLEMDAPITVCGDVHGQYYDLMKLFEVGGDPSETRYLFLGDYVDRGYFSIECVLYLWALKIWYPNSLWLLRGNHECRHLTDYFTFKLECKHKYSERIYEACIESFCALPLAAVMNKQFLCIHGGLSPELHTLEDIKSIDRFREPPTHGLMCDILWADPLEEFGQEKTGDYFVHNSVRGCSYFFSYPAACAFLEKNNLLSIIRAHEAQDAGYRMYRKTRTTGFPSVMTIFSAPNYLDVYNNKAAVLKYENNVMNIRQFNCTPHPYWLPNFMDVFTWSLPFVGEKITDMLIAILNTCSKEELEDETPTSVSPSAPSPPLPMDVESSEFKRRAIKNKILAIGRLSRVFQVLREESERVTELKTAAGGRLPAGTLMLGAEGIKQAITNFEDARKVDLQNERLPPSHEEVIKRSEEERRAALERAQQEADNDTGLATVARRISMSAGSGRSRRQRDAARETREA
compound,measurement,setting,value
CC[C@@H]1/C=C(\C)C[C@H](C)C[C@H](OC)[C@H]2O[C@@](O)(C(=O)C(=O)N3CCCC[C@H]3C(=O)O[C@H](/C(C)=C/[C@@H]3CC[C@@H](O)[C@H](OC)C3)[C@H](C)[C@@H](O)C/C1=N/NC(C)=O)[C@H](C)C[C@@H]2OC [JH-FK-05],"BLI, compound-mediated ternary complex formation, 10 μM compound",[1],target complexes form in the presence of the analogs with affinities similar to those of the parent compounds
same,MIC,[2],1 µg/mL
same,MIC,[3],> 8 µg/mL
same,MIC,[4],1 µg/mL
same,MIC,[5],2 µg/mL
same,MIC,[6],1 µg/mL
same,MIC,[7],> 8 µg/mL
same,MIC,[8],> 8 µg/mL
same,MIC,[9],1 µg/mL
